According to patent publication US20260256765A1, “METHOD OF TREATING DISEASE USING COMPOUND, AND USE OF COMPOUND” (TENNOR THERAPEUTICS (SUZHOU) LIMITED, priority 2023, published 2026):
Values after ≈ are worked out from the molar mass of the structure shown. Like-named read-outs stand apart in the source and are kept apart here.

Experiments:
Format in all cases: cell-based
[1] = tested on: Staphylococcus aureus (18 strains); assay: MIC against clinical DFI isolates, Staphylococcus aureus
Experimental: (§1) Preparation of test strains: In this example, foot specimens were collected from 49 patients with type II diabetes. Isolates were obtained from the specimens described above through homogenization, plating, and culture at 37° C., and after the removal of fungi and strains with poor growth or strains that could not be isolated and purified, a total of 69 clinical strains were obtained. Among these, 55 strains were Gram-positive bacteria and 14 strains were Gram-negative bacteria. Of the Gram-positive bacteria, 43 strains were staphylococci, including 18 Staphylococcus aureus strains, 8 Staphylococcus epidermidis strains, and 5 Staphylococcus lugdunensis strains. One ATCC standard strain was additionally used as a standard and quality control strain.
(§2) Determination of antibacterial activity: The minimum inhibitory concentration (MIC) and the minimum biofilm bactericidal concentration (MBBC) for in vitro biofilms of the compound of formula (I) and control drugs (see details in 2) against 69 clinically isolated diabetic foot infection clinical strains were evaluated using the standard broth dilution method and the in vitro biofilm culture and drug susceptibility methods reported in the literature.

[2] = tested on: Staphylococci (43 strains); assay: MBBC against biofilms of clinical DFI isolates, staphylococci total
Experimental: as §1
(§3) Preparation of biofilms: In a sterile environment, a single, identified, and thawed colony was picked with an inoculation loop and bacterial inoculums were adjusted to a 0.5 McFarland standard, which served as an initial bacterial inoculum. The bacterial inoculum was diluted in a 1:200 ratio by adding 50 μL of the initial bacterial inoculums to 10 mL of a CAMHB medium. 150 μL of the bacterial inoculums was transferred to a CBD plate using a pipette. The inoculated CBD plate was incubated in an incubator at 35±2° C. for 16-20 hours.
as §2

[3] = tested on: Gram-negative bacteria (14 strains); assay: MBBC for in vitro biofilms of clinical DFI isolates, Gram-negative bacteria
Experimental: as §1, §3, §2

[4] = tested on: Gram-negative bacteria (14 strains); assay: MIC by standard broth dilution against clinical DFI isolates, Gram-negative bacteria
Experimental: as §1, §2

[5] = tested on: Gram-positive bacteria (55 strains); assay: MIC by standard broth dilution against clinical DFI isolates, Gram-positive bacteria
Experimental: as §1, §2

[6] = tested on: Staphylococcus aureus (18 strains); assay: MBBC against biofilms of clinical DFI isolates, Staphylococcus aureus
Experimental: as §1, §3, §2

[7] = tested on: Gram-positive bacteria (55 strains); assay: MBBC for in vitro biofilms of clinical DFI isolates, Gram-positive bacteria
Experimental: as §1, §3, §2

[8] = tested on: Staphylococci (43 strains); assay: MIC against clinical DFI isolates, staphylococci total
Experimental: as §1, §2

[9] = tested on: Staphylococcus epidermidis (8 strains); assay: MIC against clinical DFI isolates, Staphylococcus epidermidis
Experimental: as §1, §2

[10] = tested on: Staphylococcus epidermidis (8 strains); assay: MBBC against biofilms of clinical DFI isolates, Staphylococcus epidermidis
Experimental: as §1, with “strain. […]” for “strain.”
as §2

[11] = Staphylococcus aureus (18 strains)
[12] = Staphylococcus aureus (18 strains), read-out: MIC90
[13] = biofilms, Staphylococci (43 strains), total, read-out: MBBC50
[14] = biofilms, Staphylococci (43 strains), total, read-out: MBBC90
[15] = Gram-positive bacteria (55 strains), clinical DFI isolates
[16] = Gram-positive bacteria (55 strains), clinical DFI isolates, read-out: MIC50
[17] = biofilms, Staphylococcus aureus (18 strains), read-out: MBBC50
[18] = biofilms, Staphylococcus aureus (18 strains), read-out: MBBC90
[19] = biofilms, Gram-positive bacteria (55 strains), read-out: MBBC50
[20] = biofilms, Gram-positive bacteria (55 strains), read-out: MBBC90
[21] = Staphylococci (43 strains), total, read-out: MIC90
[22] = Staphylococcus aureus (18 strains), read-out: MIC50
[23] = biofilms, Staphylococcus aureus (18 strains)
[24] = Staphylococci (43 strains), total
[25] = Staphylococci (43 strains), total, read-out: MIC50
[26] = biofilms, Gram-positive bacteria (55 strains)

Structure (SMILES)	MIC range [1, 11]	MIC90 [1, 12]	MBC [2, 13]	MBC [2, 14]	MBC ([3]; read-out: MBBC50)	MBC ([3]; read-out: MBBC90)	MIC50 [4]	MIC90 [4]	MIC90 [5, 15]	MIC50 [5, 16]	MBC [6, 17]	MBC [6, 18]	MBC [7, 19]	MBC [7, 20]	MIC90 [8, 21]	MIC50 [1, 22]	MIC range [9]	MIC range [8, 24]	MIC50 [8, 25]	further results
CCC[C@@H]1C[C@@H](C(=O)N[C@@H]([C@H]2O[C@H](SC)[C@H](O)[C@@H](O)[C@H]2O)[C@H](C)Cl)N(C)C1 [Clindamycin]	≤0.06~0.5 μg/mL	0.25 µg/mL (≈ 0.588 µM)	> 128 µg/mL	> 128 µg/mL	> 128 µg/mL	> 128 µg/mL	> 128 µg/mL	> 128 µg/mL	> 128 µg/mL	0.25 µg/mL (≈ 0.588 µM)	> 128 µg/mL	> 128 µg/mL	> 128 µg/mL	> 128 µg/mL	128 µg/mL (≈ 301 µM)	–	–	–	–	MIC50 ([1]; Staphylococcus aureus): 0.125 µg/mL (≈ 0.294 µM); MIC50 [8]: 0.125 µg/mL (≈ 0.294 µM)
CO[C@H]1/C=C/O[C@@]2(C)Oc3c(C)c(O)c4c(O)c(c(/C=N/N5CCC(N(C)C6([C@@H]7CCN(c8c(F)cn9c(=O)c(C(=O)O)cc(C%10CC%10)c9c8C)C7)CC6)CC5)c(O)c4c3C2=O)NC(=O)/C(C)=C\C=C\[C@H](C)[C@H](O)[C@@H](C)[C@@H](O)[C@@H](C)[C@H](OC(C)=O)[C@@H]1C [Compound of formula (I)]	≤0.015~0.03 μg/mL	≤ 0.015 µg/mL	0.06 µg/mL	0.5 µg/mL	> 16 µg/mL	> 32 µg/mL	> 32 µg/mL	> 32 µg/mL	0.25 µg/mL	≤ 0.015 µg/mL	0.25 µg/mL	0.5 µg/mL	0.125 µg/mL	16 µg/mL	≤ 0.015 µg/mL	≤ 0.015 µg/mL	≤0.015~0.03 ^ μg/mL	≤0.015~0.25 μg/mL	≤ 0.015 µg/mL	MIC50 ([1]; Staphylococcus aureus, read-out: MIC50): < 0.015 µg/mL; MIC90 ([1]; Staphylococcus aureus, read-out: MIC90): 0.015 µg/mL; MBBC range ([2]; biofilms, Staphylococci (43 strains), total): ≤0.015~1 μg/mL; MBBC range ([2]; in vitro biofilms of staphylococci): 0.015 to 1 g/mL; MBBC50 ([2]; staphylococci biofilms): 0.06 µg/mL; MBBC90 ([2]; staphylococci biofilms): 0.5 µg/mL; MIC50 ([5]; Gram-positive bacterial isolates, text b97): < 0.015 µg/mL; MBBC50 ([6]; Staphylococcus aureus biofilms): 0.25 µg/mL; MBBC range [6, 23]: 0.03~0.5 μg/mL; MBBC range ([6]; in vitro biofilms of Staphylococcus aureus): 0.03 to 0.5 g/mL; MIC50 ([8]; staphylococci, read-out: MIC50): < 0.015 µg/mL; MIC90 ([8]; staphylococci, read-out: MIC90): 0.015 µg/mL; MBBC range [10]: ≤0.015~0.06 ^ μg/mL
CC(=O)NC[C@H]1CN(c2ccc(N3CCOCC3)c(F)c2)C(=O)O1 [Linezolid]	2~4 μg/mL	4 µg/mL (≈ 11.9 µM)	> 128 µg/mL	> 128 µg/mL	> 128 µg/mL	> 128 µg/mL	> 128 µg/mL	> 128 µg/mL	–	–	> 128 µg/mL	> 128 µg/mL	> 128 µg/mL	> 128 µg/mL	4 µg/mL (≈ 11.9 µM)	2 µg/mL (≈ 5.93 µM)	2~4 μg/mL	0.5~4 μg/mL	2 µg/mL (≈ 5.93 µM)	MBBC50 [7, 26]: >128 µg/mL; MBBC90 [7, 26]: >128 µg/mL; MIC50 ([8]; staphylococci, read-out: MIC50): 2 µg/mL (≈ 5.93 µM); MIC90 ([8]; staphylococci, read-out: MIC90): 4 µg/mL (≈ 11.9 µM)
C/C(=C\C(=O)OCCCCCCCCC(=O)O)C[C@@H]1OC[C@H](C[C@@H]2O[C@H]2[C@@H](C)[C@H](C)O)[C@@H](O)[C@H]1O [Mupirocin]	–	> 128 µg/mL	> 128 µg/mL	> 128 µg/mL	> 128 µg/mL	> 128 µg/mL	> 128 µg/mL	> 128 µg/mL	64 µg/mL (≈ 128 µM)	–	> 128 µg/mL	> 128 µg/mL	> 128 µg/mL	> 128 µg/mL	32 µg/mL (≈ 63.9 µM)	0.25 µg/mL (≈ 0.499 µM)	0.25~0.5 μg/mL	–	0.25 µg/mL (≈ 0.499 µM)	–
Cc1onc(-c2ccccc2)c1C(=O)N[C@@H]1C(=O)N2[C@@H]1SC(C)(C)[C@@H]2C(=O)O [Oxacillin]	–	64 µg/mL (≈ 159 µM)	> 128 µg/mL	> 128 µg/mL	> 128 µg/mL	> 128 µg/mL	> 128 µg/mL	> 128 µg/mL	–	–	32 µg/mL (≈ 79.7 µM)	> 128 µg/mL	> 128 µg/mL	> 128 µg/mL	128 µg/mL (≈ 319 µM)	0.5 µg/mL (≈ 1.25 µM)	–	–	2 µg/mL (≈ 4.98 µM)	–
CO[C@H]1/C=C/O[C@@]2(C)Oc3c(C)c(O)c4c(O)c(c(/C=N/N5CCN(C)CC5)c(O)c4c3C2=O)NC(=O)/C(C)=C\C=C\[C@H](C)[C@H](O)[C@@H](C)[C@@H](O)[C@@H](C)[C@H](OC(C)=O)[C@@H]1C [Rifampicin]	≤0.015 µg/mL	≤ 0.015 µg/mL	4 µg/mL (≈ 4.86 µM)	> 16 µg/mL	> 16 µg/mL	> 32 µg/mL	32 µg/mL (≈ 38.9 µM)	> 32 µg/mL	0.5 µg/mL (≈ 0.608 µM)	≤ 0.015 µg/mL	16 µg/mL (≈ 19.4 µM)	> 16 µg/mL	8 µg/mL (≈ 9.72 µM)	> 16 µg/mL	≤ 0.015 µg/mL	≤ 0.015 µg/mL	≤0.015 µg/mL	–	≤ 0.015 µg/mL	MBBC range [6, 23]: ≤0.03~16 ^ μg/mL; MBBC range [10]: 0.03~16 ^ μg/mL
CN[C@H](CC(C)C)C(=O)N[C@H]1C(=O)N[C@@H](CC(N)=O)C(=O)N[C@H]2C(=O)N[C@H]3C(=O)N[C@H](C(=O)N[C@H](C(=O)O)c4cc(O)cc(O)c4-c4cc3ccc4O)[C@H](O)c3ccc(c(Cl)c3)Oc3cc2cc(c3O[C@@H]2O[C@H](CO)[C@@H](O)[C@H](O)[C@H]2O[C@H]2C[C@](C)(N)[C@H](O)[C@H](C)O2)Oc2ccc(cc2Cl)[C@H]1O [Vancomycin]	1~2 μg/mL	–	–	–	> 128 µg/mL	> 128 µg/mL	> 128 µg/mL	> 128 µg/mL	2 µg/mL (≈ 1.38 µM)	2 µg/mL (≈ 1.38 µM)	–	–	–	–	–	–	2~4 μg/mL	1~4 μg/mL	–	MIC50 ([1]; Staphylococcus aureus): 2 µg/mL (≈ 1.38 µM); MIC90 ([1]; Staphylococcus aureus): 2 µg/mL (≈ 1.38 µM); MBC ([2]; read-out: MBBC50): > 128 µg/mL; MBC ([2]; read-out: MBBC90): > 128 µg/mL; MBC ([6]; Staphylococcus aureus, read-out: MBBC50): > 128 µg/mL; MBC ([6]; Staphylococcus aureus, read-out: MBBC90): > 128 µg/mL; MBBC50 [7, 26]: >128 µg/mL; MBBC90 [7, 26]: >128 µg/mL; MBC ([7]; read-out: MBBC50): > 128 µg/mL; MBC ([7]; read-out: MBBC90): > 128 µg/mL; MIC50 [8]: 2 µg/mL (≈ 1.38 µM); MIC90 [8]: 2 µg/mL (≈ 1.38 µM); MIC50 ([8]; staphylococci): 2 µg/mL (≈ 1.38 µM); MIC90 ([8]; staphylococci): 2 µg/mL (≈ 1.38 µM)
